Target: human TRPA1 (Homo sapiens (Human), UniProt O75762)
Assay: Measurement of TRPA1 antagonist activity (intracellular calcium increase induced by allylisothiocyanate in 293T cells transfected with human TRPA1)
Type: cell-based
Conditions: 293T cells expressing human TRPA1, allylisothiocyanate stimulation, FLIPR Calcium4 fluorescence; read-out: hTRPA1 IC50
Procedure: Measurement of TRPA1 Antagonist Activity
Human TRPA1 Expression Plasmid
Using cDNA encoding human TRPA1 (GenBank accession No. NM_007332) (manufactured by Kazusa DNA Research Institute, item No. FHC07217) as a template, primer 1 (SEQ ID NO: 1) and primer 2 (SEQ ID NO: 2), PCR by PfuUltra High-Fidelity DNA Polymerase (Stratagene) was performed, and full-length human TRPA1 gene was amplified.
A recognition site (underlined) of restriction enzyme HindIII was added to the 5′ end of human TRPA1 gene, and XbaI site (underlined) was added to the 3′ end of human TRPA1 gene, and GTT of the template sequence was changed to termination codon TAG (bold). The obtained double stranded DNA was enzyme-digested with HindIII and XbaI, and introduced into a multicloning site of expression plasmid pcDNA3.1/zeo(+) (manufactured by Invitrogen) to give a human TRPA1 expression plasmid.
Human embryonic kidney-derived 293T cells were cultured in Dulbecco's Modified Eagle Medium containing 10% fetal bovine serum, 10 unit penicillin, and 10 μg streptomycin. One day before assay, 3×10^6 of 293T cells were plated on a petri dish having a diameter of 10 cm, and cultured in a CO2 incubator for 24 hr. OPTI-MEM I Reduced Serum Media (Invitrogen) (600 μL), Mirus TransIT-293 (Mirus Bio) (18 μL), and human TRPA1 expression plasmid (6 μg) were mixed, the total amount of the mixture was added to the cells on the petri dish to allow for gene transfer. The cells were recovered about for 8 hr later, plated on a poly-D-lysine coated 384 well black/clear bottom plate at 12,000 cells/well, and cultured overnight.
Measurement of Intracellular Calcium Increase
The medium was removed from the 384 well plate, calcium indicator (Molecular Device, trade name: FLIPR Calcium4 Assay Kit) dissolved in HBSS (Thermo Fisher Scientific) (pH 7.2) containing 20 mM HEPES was added (38 μL/well), and the cells were stained in a CO2 incubator for 1 hr. The 384 well plate was stood at room temperature for not less than 15 min, set on FDSS7000 (Hamamatsu Photonics K.K.), and a test substance solution was added at 10 μL/well. After 10 min, allylisothiocyanate solution (12 μL/well) was added, the relative fluorescence intensity was measured for 5 min after addition of the allylisothiocyanate solution.
Test Substance Preparation
Preparation of Test Substance Solution and Allylisothiocyanate Solution
A test substance solution was prepared to have a composition of HBSS (Thermo Fisher Scientific) (pH 7.2) containing 0.48% dimethyl sulfoxide, a test substance at 4.8-fold concentration of the evaluation concentration, 0.1% bovine serum albumin and 20 mM HEPES. An allylisothiocyanate solution was prepared to have a composition of HBSS (Thermo Fisher Scientific) (pH 7.2) containing 0.1% dimethyl sulfoxide, 100 μM allylisothiocyanate, 0.1% bovine serum albumin and 20 mM HEPES.
Calculation of Antagonist Activity
The activity rate of a test substance at each concentration was calculated, wherein the relative fluorescence intensity change of a well free of a test substance and containing allylisothiocyanate is 100% activity rate, and the relative fluorescence intensity change of a well free of a test substance and allylisothiocyanate is 0% activity rate. The inhibitory rate of a test substance at each concentration was calculated by subtracting the activity rate of the test substance from 100% activity rate, and the concentration of a test substance showing 50% inhibitory rate was calculated as IC50 from the sigmoid approximate curve by XLfit (idbs).

Chain of human TRPA1 (O75762 whole entry): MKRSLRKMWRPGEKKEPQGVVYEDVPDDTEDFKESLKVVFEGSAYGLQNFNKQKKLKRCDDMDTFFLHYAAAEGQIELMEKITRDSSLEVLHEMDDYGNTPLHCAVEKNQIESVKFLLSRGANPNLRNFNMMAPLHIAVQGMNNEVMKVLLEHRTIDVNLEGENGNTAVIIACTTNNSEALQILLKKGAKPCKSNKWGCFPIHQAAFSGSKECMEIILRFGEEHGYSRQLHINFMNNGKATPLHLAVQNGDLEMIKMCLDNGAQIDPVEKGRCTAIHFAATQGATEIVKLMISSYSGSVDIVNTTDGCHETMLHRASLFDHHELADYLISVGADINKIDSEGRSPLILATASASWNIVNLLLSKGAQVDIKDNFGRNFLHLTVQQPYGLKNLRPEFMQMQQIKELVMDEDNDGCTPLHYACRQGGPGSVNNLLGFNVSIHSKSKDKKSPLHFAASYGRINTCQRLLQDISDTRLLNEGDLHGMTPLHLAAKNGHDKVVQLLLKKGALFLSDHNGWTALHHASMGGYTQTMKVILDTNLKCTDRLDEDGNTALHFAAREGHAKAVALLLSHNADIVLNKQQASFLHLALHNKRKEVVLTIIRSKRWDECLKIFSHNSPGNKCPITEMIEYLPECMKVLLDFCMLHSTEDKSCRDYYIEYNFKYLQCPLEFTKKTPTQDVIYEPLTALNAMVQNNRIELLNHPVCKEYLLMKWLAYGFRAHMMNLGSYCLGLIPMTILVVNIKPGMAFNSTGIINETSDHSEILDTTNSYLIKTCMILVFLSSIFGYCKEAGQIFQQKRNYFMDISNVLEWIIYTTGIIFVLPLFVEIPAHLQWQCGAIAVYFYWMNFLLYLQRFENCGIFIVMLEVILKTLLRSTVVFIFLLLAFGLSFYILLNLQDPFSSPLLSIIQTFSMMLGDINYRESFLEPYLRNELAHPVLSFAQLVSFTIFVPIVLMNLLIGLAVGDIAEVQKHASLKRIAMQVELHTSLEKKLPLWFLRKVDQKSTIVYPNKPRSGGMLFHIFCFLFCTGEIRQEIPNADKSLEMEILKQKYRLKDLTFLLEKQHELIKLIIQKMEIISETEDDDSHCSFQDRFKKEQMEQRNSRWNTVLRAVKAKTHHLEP

Compound | IC50 [nM]
CC(C)n1c(=O)c(CNC(=O)[C@@H]2CCCN2S(=O)(=O)c2cc3ccccc3s2)cn(-c2ccc(C(F)(F)F)cc2)c1=O [Example 19, (2S)-1-(benzothiophen-2-ylsulfonyl)-N-[[3-isopropyl-2,4-dioxo-1-[4-(trifluoromethyl)phenyl]-pyrimidin-5-yl]methyl]pyrrolidine-2-carboxamide] | 56
CC(C)n1c(=O)c(CNC(=O)[C@@H]2[C@@H](O)CCN2S(=O)(=O)c2cc3ccccc3o2)cn(-c2ccc(C(F)(F)F)cc2)c1=O [Example 7, (2S,3S)-1-(benzofuran-2-ylsulfonyl)-3-hydroxy-N-[[3-isopropyl-2,4-dioxo-1-[4-(trifluoromethyl)phenyl]-pyrimidin-5-yl]methyl]pyrrolidine-2-carboxamide] | 220
CC(C)n1cc(-c2ccc(C(F)(F)F)cn2)cc(CNC(=O)[C@@H]2CCCN2S(=O)(=O)c2cc3cc(F)ccc3o2)c1=O [Example 43, (2S)-1-(5-fluorobenzofuran-2-yl)sulfonyl-N-[[1-isopropyl-2-oxo-5-[5-(trifluoromethyl)-2-pyridyl]-3-pyridyl]methyl]pyrrolidine-2-carboxamide] | 23
CC(C)n1c(=O)c(CNC(=O)[C@@H]2CCCN2S(=O)(=O)c2cc3cnccc3o2)cn(-c2ccc(C(F)(F)F)cc2)c1=O [Example 23, (2S)-1-fro[3,2-c]pyridin-2-ylsulfonyl-N-[[3-isopropyl-2,4-dioxo-1-[4-(trifluoromethyl)phenyl]-pyrimidin-5-yl]methyl]pyrrolidine-2-carboxamide] | 20
CC(C)n1c(=O)c(CNC(=O)[C@@H]2C=CCN2S(=O)(=O)c2cc3cc(F)ccc3o2)cn(-c2ccc(C(F)(F)F)cc2)c1=O [Example 16, (2S)-1-(5-fluorobenzofuran-2-yl)sulfonyl-N-[[3-isopropyl-2,4-dioxo-1-[4-(trifluoromethyl)phenyl]-pyrimidin-5-yl]methyl]-2,5-dihydropyrrole-2-carboxamide] | 3.6
CC(C)n1cc(CNC(=O)[C@@H]2CCCN2S(=O)(=O)c2cc3ccccc3o2)cc(-c2ccc(C(F)(F)F)cn2)c1=O [Example 50, (2S)-1-(benzofuran-2-ylsulfonyl)-N-[[1-isopropyl-6-oxo-5-[5-(trifluoromethyl)-2-pyridyl]-3-pyridyl]methyl]pyrrolidine-2-carboxamide] | 110
CC(C)n1c(=O)c(CNC(=O)[C@@H]2CCCN2S(=O)(=O)c2cc3cnccc3o2)cn(-c2ccc(C(F)(F)F)cn2)c1=O [Example 36, (2S)-1-fro[3,2-c]pyridin-2-ylsulfonyl-N-[[3-isopropyl-2,4-dioxo-1-[5-(trifluoromethyl)-2-pyridyl]pyrimidin-5-yl]methyl]pyrrolidine-2-carboxamide] | 200
CC(C)n1cc(CNC(=O)[C@@H]2CCCN2S(=O)(=O)c2cc3cc(F)ccc3o2)cc(-c2ccc(C(F)(F)F)nc2)c1=O [Example 49, (2S)-1-(5-fluorobenzofuran-2-yl)sulfonyl-N-[[1-isopropyl-6-oxo-5-[6-(trifluoromethyl)-3-pyridyl]-3-pyridyl]methyl]pyrrolidine-2-carboxamide] | 45
CC(C)n1c(=O)c(CNC(=O)[C@@H]2CCCN2S(=O)(=O)c2cc3c(F)cccc3o2)cn(-c2ccc(C(F)(F)F)cc2)c1=O [Example 10, (2S)-1-(4-fluorobenzofuran-2-yl)sulfonyl-N-[[3-isopropyl-2,4-dioxo-1-[4-(trifluoromethyl)phenyl]-pyrimidin-5-yl]methyl]pyrrolidine-2-carboxamide] | 25
CC(C)n1c(=O)c(CNC(=O)[C@@H]2CCCN2S(=O)(=O)c2cc3cc(F)ccc3o2)cn(-c2ccc(Cl)cc2)c1=O [Example 41, (2S)-N-[[1-(4-chlorophenyl)-3-isopropyl-2,4-dioxo-pyrimidin-5-yl]methyl]-1-(5-fluorobenzofuran-2-yl)sulfonyl-pyrrolidine-2-carboxamide] | 24
CC(C)n1c(=O)c(CNC(=O)[C@@H]2[C@@H](O)CCN2S(=O)(=O)c2cc3cc(F)ccc3o2)cn(-c2ccc(C(F)(F)F)cn2)c1=O [Example 35, (2S,3S)-1-(5-fluorobenzofuran-2-yl)sulfonyl-3-hydroxy-N-[[3-isopropyl-2,4-dioxo-1-[5-(trifluoromethyl)-2-pyridyl]pyrimidin-5-yl]methyl]pyrrolidine-2-carboxamide] | 160
Cn1c(=O)c(CNC(=O)[C@@H]2CCCN2S(=O)(=O)c2cc3cc(F)ccc3o2)cn(-c2ccc(C(F)(F)F)cc2)c1=O [Example 5, (2S)-1-(5-fluorobenzofuran-2-yl)sulfonyl-N-[[3-methyl-2,4-dioxo-1-[4-(trifluoromethyl)phenyl]-pyrimidin-5-yl]methyl]pyrrolidine-2-carboxamide] | 21
CC(C)n1cc(CNC(=O)[C@@H]2CCCN2S(=O)(=O)c2cc3ccccc3o2)cc(-c2ccc(C(F)(F)F)cc2)c1=O [Example 13, (2S)-1-(benzofuran-2-ylsulfonyl)-N-[[1-isopropyl-6-oxo-5-[4-(trifluoromethyl)phenyl]-3-pyridyl]methyl]pyrrolidine-2-carboxamide] | 27
O=C(NCc1cn(-c2ccc(C(F)(F)F)cc2)c(=O)n(C2CCOCC2)c1=O)[C@@H]1CCCN1S(=O)(=O)c1cc2ccccc2o1 [Example 9, (2S)-1-(benzofuran-2-ylsulfonyl)-N-[[2,4-dioxo-3-tetrahydropyran-4-yl-1-[4-(trifluoromethyl)phenyl]-pyrimidin-5-yl]methyl]pyrrolidine-2-carboxamide] | 140
CC(C)n1c(=O)c(CNC(=O)C2(NS(=O)(=O)c3cc4cc(F)ccc4o3)CC2)cn(-c2ccc(C(F)(F)F)cc2)c1=O [Example 26] | 250
CC(C)n1cc(-c2ccc(C(F)(F)F)cc2)cc(CNC(=O)[C@@H]2CCCN2S(=O)(=O)c2cc3cnccc3o2)c1=O [Example 27, (2S)-1-fro[3,2-c]pyridin-2-ylsulfonyl-N-[[1-isopropyl-2-oxo-5-[4-(trifluoromethyl)phenyl]-3-pyridyl]methyl]pyrrolidine-2-carboxamide] | 93
CC(C)n1c(=O)c(CNC(=O)[C@@H]2CCCN2S(=O)(=O)c2cc3cc(F)ccc3o2)cn(-c2ccc(C(F)(F)F)cc2)c1=O [Example 3, (2S)-1-(5-fluorobenzofuran-2-yl)sulfonyl-N-[[3-isopropyl-2,4-dioxo-1-[4-(trifluoromethyl)phenyl]-pyrimidin-5-yl]methyl]pyrrolidine-2-carboxamide] | 7.3
CCn1c(=O)c(CNC(=O)[C@@H]2CCCN2S(=O)(=O)c2cc3ccccc3o2)cn(-c2ccc(C(F)(F)F)cc2)c1=O [Example 2, (2S)-1-(benzofuran-2-ylsulfonyl)-N-[[3-ethyl-2,4-dioxo-1-[4-(trifluoromethyl)phenyl]pyrimidin-5-yl]methyl]pyrrolidine-2-carboxamide] | 26
CC(C)n1c(=O)c(CNC(=O)[C@H](C)NS(=O)(=O)c2cc3cc(F)ccc3o2)cn(-c2ccc(C(F)(F)F)cc2)c1=O [Example 24] | 42
CC(C)n1cc(-c2ccc(C(F)(F)F)cc2)cc(CNC(=O)[C@@H]2CCCN2S(=O)(=O)c2cc3ccccc3o2)c1=O [Example 15, (2S)-1-(benzofuran-2-ylsulfonyl)-N-[[1-isopropyl-2-oxo-5-[4-(trifluoromethyl)phenyl]-3-pyridyl]methyl]pyrrolidine-2-carboxamide] | 79
